Experimental findings from ChEMBL document CHEMBL1649365, “Molecular modeling studies on imidazo[4,5-b]pyridine derivatives as Aurora A kinase inhibitors using 3D-QSAR and docking approaches” (Eur J Med Chem, 2011) are described below.

For this test, the target named is T1, Aurora kinase A (Homo sapiens, UniProt O14965).
T1 sequence (O14965 whole entry): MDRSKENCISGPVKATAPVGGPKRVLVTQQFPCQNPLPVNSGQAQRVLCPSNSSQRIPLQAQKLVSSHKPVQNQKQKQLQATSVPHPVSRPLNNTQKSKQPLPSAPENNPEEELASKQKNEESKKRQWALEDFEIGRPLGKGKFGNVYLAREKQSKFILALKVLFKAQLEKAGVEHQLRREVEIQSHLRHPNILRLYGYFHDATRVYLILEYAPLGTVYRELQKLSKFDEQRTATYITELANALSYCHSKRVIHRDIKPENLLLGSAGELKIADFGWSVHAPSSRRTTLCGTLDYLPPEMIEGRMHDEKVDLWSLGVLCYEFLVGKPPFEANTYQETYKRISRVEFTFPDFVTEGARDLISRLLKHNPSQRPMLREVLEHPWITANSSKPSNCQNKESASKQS
Description: Inhibition of Aurora A.
In turn, `Cc1cc(CN2CCN(c3c(Cl)cnc4nc(-c5ccc(Cn6cccn6)cc5)[nH]c34)CC2)no1` yielded an IC50 of 3 nM.

`Cc1cc(CN2CCN(c3c(Br)cnc4[nH]c(-c5ccc(Cn6cccn6)cc5)nc34)CC2)no1` showed an IC50 of 10 nM.

Take `c1ccc(-c2ccc(-c3nc4cccnc4[nH]3)cc2)nc1`: the IC50 was 4400 nM.

Turning to `COc1ccc(-c2nc3c(N4CCN(Cc5coc(C(C)C)n5)CC4)c(Br)cnc3[nH]2)cc1`, the IC50 came to 81 nM.

On to `Cc1cc(CN2CCN(c3c(Cl)cnc4nc(-c5ccc(OCCO)cc5)[nH]c34)CC2)no1`, for which half-maximal inhibition (IC50) required 29 nM. This IC50 lies about 2.8-fold lower than the previous one.

`COc1ccc(-c2nc3c(N4CCN(Cc5ccncc5)CC4)c(Br)cnc3[nH]2)cc1` came in with an IC50 of 9 nM.

The compound `CC(=O)c1cccc(-c2ccc(-c3nc4ncc(Br)c(N5CCN(Cc6cc(C)on6)CC5)c4[nH]3)cc2)c1` displayed an IC50 of 14 nM. This IC50 is about 1.6-fold higher than that of the compound before.

In turn, `CN(C)c1ccc(-c2nc3c(N4CCN(CC(=O)Nc5ccccc5)CC4)c(Br)cnc3[nH]2)cc1` gave an IC50 of 277 nM.

As for `Cc1cc(CN2CCN(c3c(Cl)cnc4nc(-c5ccc(N6CCN(C)CC6)cc5)[nH]c34)CC2)no1`, the IC50 amounted to 10 nM.

For `O=C(CN1CCN(c2c(Br)cnc3[nH]cnc23)CC1)Nc1nccs1`, the IC50 stood at 81 nM. Compared with the last compound, the IC50 is about 8.1-fold higher.

In turn, `CC(c1ccncc1)N1CCN(c2c(Br)cnc3[nH]c(-c4ccc(N(C)C)cc4)nc23)CC1` (configuration not stated) came in with an IC50 of 55 nM. The IC50 values of the last two compounds are within 1.5-fold of each other.

On to `Cc1cc(CN2CCN(c3c(Br)cnc4[nH]c(-c5ccc(N6CCNCC6)cc5)nc34)CC2)no1`, for which the IC50 was 10 nM.
